IC50 and Ratio IC50 data for 2 compounds are collected here from ChEMBL document CHEMBL4184150, “Microcystins: Synthesis and structure-activity relationship studies toward PP1 and PP2A” (Bioorg Med Chem, 2018).

The target in assay [1] is Serine/threonine-protein phosphatase PP1-alpha catalytic subunit (Homo sapiens, UniProt P62136). Put plainly: Inhibition of recombinant PP1alpha catalytic subunit (unknown origin) using DIFMUP as substrate pretreated for 10 mins followed by substrate addition measured every 15 secs for 30 mins by fluorescence assay.
The target of assay [2] is Serine/threonine-protein phosphatase 2A catalytic subunit alpha isoform (Homo sapiens, UniProt P67775). Description: Inhibition of recombinant human PP2A catalytic subunit L309 deletion mutant using DIFMUP as substrate pretreated for 10 mins followed by substrate addition measured every 15 secs for 30 mins by fluorescence assay.
Assay [3] can be described thus: Inhibition of rabbit skeletal muscle PP1 catalytic subunit using [32P]-phosphorylase alpha as substrate pretreated for 10 mins followed by substrate addition. Also on record: species or system Oryctolagus cuniculus.
The nature of assay [4]: Inhibition of rabbit skeletal muscle PP2A catalytic subunit using [32P]-phosphorylase alpha as substrate pretreated for 10 mins followed by substrate addition. Also on record: species or system Oryctolagus cuniculus.
Assay [5] is filed under the species Oryctolagus cuniculus. Description: Selectivity ratio of IC50 for rabbit skeletal muscle PP2A catalytic subunit to IC50 for rabbit skeletal muscle PP1 catalytic subunit.

Structures are written as SMILES.

Chain of Serine/threonine-protein phosphatase 2A catalytic subunit alpha isoform (P67775 whole entry, looked up, canonical isoform): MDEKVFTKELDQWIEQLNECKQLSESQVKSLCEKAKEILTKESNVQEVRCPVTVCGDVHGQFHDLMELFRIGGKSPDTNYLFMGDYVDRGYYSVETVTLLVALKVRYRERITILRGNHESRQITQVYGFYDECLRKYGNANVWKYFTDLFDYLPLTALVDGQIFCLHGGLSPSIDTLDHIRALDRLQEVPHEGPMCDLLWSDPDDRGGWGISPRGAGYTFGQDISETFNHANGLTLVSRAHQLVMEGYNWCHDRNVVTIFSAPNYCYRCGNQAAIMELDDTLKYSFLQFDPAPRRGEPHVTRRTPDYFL
Chain of Serine/threonine-protein phosphatase PP1-alpha catalytic subunit (P62136 whole entry, canonical isoform): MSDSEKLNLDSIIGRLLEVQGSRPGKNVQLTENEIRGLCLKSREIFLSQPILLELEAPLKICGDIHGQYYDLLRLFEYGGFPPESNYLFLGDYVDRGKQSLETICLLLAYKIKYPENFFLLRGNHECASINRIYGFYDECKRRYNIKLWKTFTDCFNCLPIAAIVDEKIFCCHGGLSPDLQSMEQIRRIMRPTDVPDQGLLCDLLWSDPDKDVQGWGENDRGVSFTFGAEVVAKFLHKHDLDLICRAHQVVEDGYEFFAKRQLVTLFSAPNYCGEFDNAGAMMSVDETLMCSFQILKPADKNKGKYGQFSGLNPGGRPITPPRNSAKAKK

Turning to `CC(C)C[C@@H]1NC(=O)[C@@H](C)NC(=O)CN(C)C(=O)CC[C@H](C(=O)O)NC(=O)[C@@H](C)[C@H](C)NC(=O)[C@H](Cc2ccccc2)NC(=O)C[C@H](C(=O)O)NC1=O`, the values for the half-inhibitory concentration (IC50) in assay [1] and in assay [2] were 254000 nM and 900 nM, respectively.
`C=C1C(=O)N[C@H](C)C(=O)N[C@@H](CC2CCCCC2)C(=O)N[C@@H](C(=O)O)[C@H](C)C(=O)N[C@@H](C)C(=O)N[C@@H](/C=C/C(C)=C/[C@H](C)[C@H](Cc2ccccc2)OC)[C@H](C)C(=O)N[C@@H](C(=O)O)CCC(=O)N1C`: the IC50 – broadly, the concentration at which inhibition is half-maximal – in assay [3] was found to be 0.52 nM; in assay [4], 3.4 nM. In addition, in assay [5], the Ratio IC50 worked out at 7.
